Literature values, collected in patent US20130273137A1, “DRUG DELIVERY COATING AND DEVICES” (MASSACHUSETTS EYE & EAR INFIRMARY, priority 2010, published 2013).

Tested on: S. aureus
Details: native MIC

CN[C@H](CC(C)C)C(=O)N[C@H]1C(=O)N[C@@H](CC(N)=O)C(=O)N[C@H]2C(=O)N[C@H]3C(=O)N[C@H](C(=O)N[C@H](C(=O)O)c4cc(O)cc(O)c4-c4cc3ccc4O)[C@H](O)c3ccc(c(Cl)c3)Oc3cc2cc(c3O[C@@H]2O[C@H](CO)[C@@H](O)[C@H](O)[C@H]2O[C@H]2C[C@](C)(N)[C@H](O)[C@H](C)O2)Oc2ccc(cc2Cl)[C@H]1O [vancomycin]
minimum inhibitory concentration of vancomycin against S. aureus: 0.5 to 2 µg/mL
